Laboratory results taken from US20100172854A1, “ANTIBACTERIAL FORMULATIONS” (priority 2007, published 2010).
Values after ≈ are worked out from the molar mass of the structure shown. Blank lines part the entries; values can stand above or below the compound they belong to.

Columns and labels:
Assay type in all cases: cell-based
[1] = tested on: Propionibacterium acnes NCTC 737; experiment: MIC assay; settings: Cutibacterium acnes, NCTC737; P. acnes NCTC 737
Method: (§1) The propionibacteria were cultured and maintained on Wilkins-Chalgren Anaerobe Medium (agar and broth) at pH 6.0; all cultures were incubated anaerobically at 37° C. for 72 hours.
(§2) This is a standard international method for quantitatively assessing the antimicrobial activity of a compound in a liquid medium. The method used a sterile 96-well microtitre plate, capable of holding about 200 μl of liquid per well. The wells contained liquid culture medium and ranges of decreasing concentrations of the relevant test compound in doubling dilutions (e.g. 1000, 500, 250, 125 . . . μg/ml, etc. down to 0.49 μg/ml). The culture media were as described above.
(§3) The wells were inoculated with a liquid suspension of freshly grown micro-organism and incubated under the conditions described above. After incubation, the microtitre plate was examined visually (with the aid of a light box) for cloudiness in each well, which would indicate microbial growth. The MIC value was recorded as the lowest concentration of test compound required to inhibit microbial growth, i.e. the lowest concentration for which the liquid in the well remained clear.
(§4) The assays included both negative (culture medium with no micro-organisms) and positive (culture medium plus diluting solvent plus micro-organism) controls.

[2] = tested on: Staphylococcus aureus ATCC 29213; experiment: MIC assay; settings: ATCC29213, S. aureus ATCC 29213
Method: (§5) The staphylococci were cultured and maintained on Mueller-Hinton Medium (agar and broth) at pH 7.2; cultures were incubated aerobically at 37° C. for 19-20 hours.
as §2, §3, §4

[3] = tested on: Propionibacterium acnes NCTC 737; experiment: MBC assay; settings: P. acnes NCTC 737; for MBC: Cutibacterium acnes, NCTC737
Method: as §1
(§6) This assay, normally carried out after an MIC assay, determines the minimum concentration of a compound that is lethal to the micro-organism being tested.
(§7) These samples were then individually sub-cultured on antibiotic-free agar medium, under the incubation conditions described above. Following incubation they were examined visually for microbial growth.

[4] = tested on: Staphylococcus aureus ATCC 29213; experiment: MBC assay; settings: S. aureus ATCC 29213; for MBC: Staphylococcus aureus, ATCC29213
Method: as §5, §6, §7

[5] = tested on: Porphyromonas gingivalis ATCC 53978; experiment: MBC assay
Method: (§8) The P. gingivalis strains were cultured and maintained on Wilkins-Chalgren Anaerobe Medium (agar and broth) at pH 7.0; all cultures were incubated anaerobically at 37° C. for 5-7 days.
as §6, §7

[6] = tested on: Porphyromonas gingivalis ATCC BAA-308; experiment: MBC assay
Method: as §8, §6, §7

[7] = tested on: Porphyromonas gingivalis NCTC 11834; experiment: MBC assay
Method: as §8, §6, §7

[8] = tested on: Streptococcus mutans ATCC 35668; experiment: MBC assay
Method: (§9) The S. mutans strains were cultured and maintained on Wilkins-Chalgren Anaerobe Medium (agar and broth) at pH 7.0 supplemented with 1 g/L glucose; all cultures were incubated at 37° C. for 48 h in an atmosphere containing 5% CO2.
as §6, §7

[9] = tested on: Streptococcus mutans ATCC 25175; experiment: MBC assay
Method: as §9, §6, §7

[10] = tested on: Streptococcus mutans ATCC 35668; experiment: MIC assay; settings: ATCC35668
Method: as §9, §2, §3, §4

[11] = tested on: Streptococcus mutans ATCC 25175; experiment: MIC assay; settings: ATCC25175
Method: as §9, §2, §3, §4

[12] = tested on: Prevotella nigrescens ATCC 33563; experiment: MIC assay; settings: ATCC33563
Method: as §2, §3, §4

[13] = tested on: Bacillus cereus ATCC 11778; experiment: MIC assay; settings: ATCC11778, read-out: MIC
Method: as §2, §3, §4

[14] = tested on: Corynebacterium mucifaciens ATCC 700355; experiment: MIC assay; settings: C. mucifaciens ATCC 700355
Method: as §2, §3, §4

[15] = tested on: Actinomyces naeslundii ATCC 12104; experiment: MIC assay; settings: ATCC12104, read-out: MIC
Method: as §2, §3, §4

[16] = tested on: Listeria monocytogenes ATCC 15313; experiment: MIC assay; settings: ATCC15313, read-out: MIC
Method: as §2, §3, §4

[17] = tested on: Streptococcus sobrinus ATCC 33478; experiment: MIC assay; settings: ATCC33478
Method: as §2, §3, §4

[18] = tested on: Clostridium difficile ATCC 7000057; experiment: MIC assay; settings: Clostridioides difficile, ATCC7000057
Method: as §2, §3, §4

[19] = tested on: Gardnerella vaginalis ATCC 14018; experiment: MIC assay; settings: ATCC14018
Method: as §2, §3, §4

[20] = tested on: Enterococcus faecalis ATCC 29212; experiment: MIC assay; settings: E. faecalis ATCC 29212
Method: as §2, §3, §4

[21] = tested on: Clostridium sporogenes ATCC 3584; experiment: MIC assay; settings: ATCC3584
Method: as §2, §3, §4

[22] = tested on: Streptococcus pyogenes ATCC 12344; experiment: MIC assay; settings: S. pyogenes ATCC 12344
Method: as §2, §3, §4

[23] = tested on: Prevotella nigrescens ATCC 33563; experiment: MBC assay
Method: as §6, §7

[24] = tested on: Bacillus cereus ATCC 11778; experiment: MBC assay
Method: as §6, §7

[25] = tested on: Actinomyces naeslundii ATCC 12104; experiment: MBC assay
Method: as §6, §7

[26] = tested on: Listeria monocytogenes ATCC 15313; experiment: MBC assay
Method: as §6, §7

[27] = tested on: Streptococcus sobrinus ATCC 33478; experiment: MBC assay
Method: as §6, §7

[28] = tested on: Clostridium difficile ATCC 7000057; experiment: MBC assay
Method: as §6, §7

[29] = tested on: Gardnerella vaginalis ATCC 14018; experiment: MBC assay
Method: as §6, §7

[30] = tested on: Clostridium sporogenes ATCC 3584; experiment: MBC assay
Method: as §6, §7

[31] = tested on: Porphyromonas gingivalis ATCC 53978; experiment: MIC assay; settings: ATCC53978
Method: as §8, §2, §3, §4

[32] = tested on: Porphyromonas gingivalis ATCC BAA-308; experiment: MIC assay; settings: ATCCBAA308
Method: as §8, §2, §3, §4

[33] = tested on: Porphyromonas gingivalis NCTC 11834; experiment: MIC assay; settings: NCTC11834
Method: as §8, §2, §3, §4

MIC [1]: > 250 µg/mL
MIC [2]: > 250 µg/mL
Compound: CC(C)(C)c1cc(Cc2cc(C(C)(C)C)c(O)c(C(C)(C)C)c2)cc(C(C)(C)C)c1O [4,4′-methylenebis(2,6-di-tert-butylphenol), reference compound]
MBC [3]: > 250 µg/mL
MBC [4]: > 250 µg/mL

MIC [1]: > 250 µg/mL
MIC [2]: > 250 µg/mL
Compound: CC(c1cc(C(C)(C)C)cc(C(C)(C)C)c1O)c1cc(C(C)(C)C)cc(C(C)(C)C)c1O [2,2′-ethylidene-bis(4,6-di-tert-butylphenol), reference compound]
MBC [3]: > 250 µg/mL
MBC [4]: > 250 µg/mL

Compound: CCc1cc(Cc2cc(CC)cc(C(C)(C)C)c2O)c(O)c(C(C)(C)C)c1 [AO 425, 2,2′-methylene-bis(4-ethyl-6-tert-butylphenol)]
MIC [1]: 7.8 µg/mL (≈ 21.2 µM)
MIC [2]: 7.8 µg/mL (≈ 21.2 µM)
MBC [3]: 31.2 µg/mL (≈ 84.8 µM)
MIC/MBC Ratio [3]: 0.25
MIC/MBC Ratio [4]: 0.125
MBC [4]: 62.5 µg/mL (≈ 170 µM)
MIC/MBC Ratio [5]: 1
MBC ([5]; ATCC53978, read-out: MBC): 0.98 µg/mL (≈ 2.66 µM)
MIC/MBC Ratio [6]: 0.5
MBC ([6]; ATCCBAA308): 3.9 µg/mL (≈ 10.6 µM)
MIC/MBC Ratio [7]: 1
MBC ([7]; NCTC11834): 1.95 µg/mL (≈ 5.29 µM)
MIC/MBC Ratio [8]: <0.03
MBC ([8]; ATCC35668): > 250 µg/mL
MIC/MBC Ratio [9]: 0.25
MBC ([9]; ATCC25175): 62.5 µg/mL (≈ 170 µM)
MIC [10]: 7.8 µg/mL (≈ 21.2 µM)
MIC [11]: 15.6 µg/mL (≈ 42.3 µM)
MIC [12]: 15.6 µg/mL (≈ 42.3 µM)
MIC [13]: 1.95 µg/mL (≈ 5.29 µM)
activity compared with AO 2246 [14]: significantly lower activity
MIC [15]: 0.98 µg/mL (≈ 2.66 µM)
MIC [16]: 0.98 µg/mL (≈ 2.66 µM)
MIC [17]: 31.2 µg/mL (≈ 84.8 µM)
MIC [18]: 7.8 µg/mL (≈ 21.2 µM)
MIC [19]: 15.6 µg/mL (≈ 42.3 µM)
activity compared with AO 2246 [20]: significantly lower activity
MIC [21]: 3.9 µg/mL (≈ 10.6 µM)
activity compared with AO 2246 [22]: significantly lower activity
MIC/MBC Ratio [23]: <1
MBC ([23]; ATCC33563): > 15.6 µg/mL
MIC/MBC Ratio [24]: 0.5
MBC ([24]; ATCC11778): 3.9 µg/mL (≈ 10.6 µM)
MIC/MBC Ratio [25]: 0.25
MBC ([25]; ATCC12104): 3.9 µg/mL (≈ 10.6 µM)
MIC/MBC Ratio [26]: 0.125
MBC ([26]; ATCC15313): 7.8 µg/mL (≈ 21.2 µM)
MIC/MBC Ratio [27]: 0.5
MBC ([27]; ATCC33478): 62.5 µg/mL (≈ 170 µM)
MIC/MBC Ratio [28]: 1
MBC ([28]; Clostridioides difficile, ATCC7000057): 7.8 µg/mL (≈ 21.2 µM)
MIC/MBC Ratio [29]: 0.5
MBC ([29]; ATCC14018): 31.2 µg/mL (≈ 84.8 µM)
MIC/MBC Ratio [30]: 0.5
MBC ([30]; ATCC3584): 7.8 µg/mL (≈ 21.2 µM)
MIC [31]: 0.98 µg/mL (≈ 2.66 µM)
MIC [32]: 1.95 µg/mL (≈ 5.29 µM)
MIC [33]: 1.95 µg/mL (≈ 5.29 µM)
